Assay results as given in ChEMBL document CHEMBL2321716, “Exploring a new frontier in cancer treatment: targeting the ubiquitin and ubiquitin-like activating enzymes” (J Med Chem, 2013).
≈ marks a conversion by molar mass, not a printed value.

Assays:
[1] = Inhibition of N-terminal GST-tagged human UAE-catalyzed [32P]-AMP:[a-32P]-ATP exchange expressed in HI5 insect cells by TLC analysis
[2] = Inhibition of N-terminal GST-tagged human UAE-catalyzed UAE-Ub thioester intermediate formation expressed in HI5 insect cells after 30 mins by immunoblotting analysis
[3] = Inhibition of mouse recombinant His6-tagged UAE-catalyzed UAE-Ub thioester intermediate formation expressed in insect cells by SDS-PAGE analysis
[4] = Inhibition of GST-tagged human recombinant UAE-catalyzed UAE-Ub thioester intermediate formation after 30 mins by fluorescence assay
HT-29 = test: Cytotoxicity against human HT-29 cells assessed as induction of cell death after 72 hrs by Alamar blue assay; assay type: functional; conditions: HT-29, 72 h, read-out: LD50 (the source's name)
LP-1 = test: Cytotoxicity against human LP-1 cells assessed as induction of cell death after 72 hrs by Alamar blue assay; assay type: functional; conditions: LP-1, 72 h, read-out: LD50 (the source's name)
T47D = test: Cytotoxicity against human T47D cells assessed as induction of cell death after 72 hrs by Alamar blue assay; assay type: functional; conditions: read-out: LD50 (the source's name)
[5] = Cytotoxicity against human U226 cells assessed as induction of cell death after 72 hrs by Alamar blue assay; assay type: functional; conditions: U226, 72 h, read-out: LD50 (the source's name)
FaDu = test: Cytotoxicity against human FADU cells assessed as induction of cell death after 72 hrs by Alamar blue assay; assay type: functional; conditions: read-out: LD50 (the source's name)
[6] = Cytotoxicity against human OVACR3 cells assessed as induction of cell death after 72 hrs by Alamar blue assay; assay type: functional; conditions: OVACR3, 72 h, read-out: LD50 (the source's name)
[7] = Cytotoxicity against human Leukemia cells assessed as induction of cell death after 72 hrs by Alamar blue assay; assay type: functional; conditions: read-out: LD50 (the source's name)
HeLa = test: Cytotoxicity against human HeLa cells assessed as induction of cell death after 72 hrs by Alamar blue assay; assay type: functional; conditions: read-out: LD50 (the source's name)
PPC-1 = test: Cytotoxicity against human PPC1 cells assessed as induction of cell death after 72 hrs by Alamar blue assay; assay type: functional; conditions: PPC-1, 72 h, read-out: LD50 (the source's name)
DU-145 = test: Cytotoxicity against human DU145 cells assessed as induction of cell death after 72 hrs by Alamar blue assay; assay type: functional; conditions: DU-145, 72 h, read-out: LD50 (the source's name)
[8] = Cytotoxicity against human MDA468 cells assessed as induction of cell death after 72 hrs by Alamar blue assay; assay type: functional; conditions: MDA-MB-468, 72 h, read-out: LD50 (the source's name)
[9] = Cytotoxicity against human KMS11 cells assessed as induction of cell death after 72 hrs by Alamar blue assay; assay type: functional; conditions: KMS-11, 72 h, read-out: LD50 (the source's name)
[10] = Inhibition of UAE (unknown origin)-catalyzed UAE-Ub intermediate formation; design: species or system Homo sapiens

What does the source list for `CCOC(=O)c1ccc(N2NC(=O)/C(=C/c3ccc([N+](=O)[O-])o3)C2=O)cc1`?
IC50 [1]: 6.4 µM; IC50 [2]: < 10 µM; IC50 [3]: < 10 µM

For `O=C1NN(c2ccc(F)c(Cl)c2)C(=O)/C1=C\c1ccc([N+](=O)[O-])o1`, which IC50 [4] is on record?
Its IC50 is 20 µM.

What about the CC50 (HT-29) of the same compound?
Its CC50 is 15 µM.

And the CC50 (LP-1)?
Its CC50 is ≤ 3 µM.

What about the CC50 (T47D) of the same compound?
Its CC50 is 15 µM.

And the CC50 [5]?
The CC50 was ≤ 3 µM.

What about the CC50 (FaDu) of the same compound?
The CC50 was 15 µM.

And the CC50 [6]?
Its CC50 is 15 µM.

And the CC50 [7]?
The CC50 was < 10 µM.

And the CC50 (HeLa)?
Its CC50 is 15 µM.

What about the CC50 (PPC-1) of the same compound?
Its CC50 is 15 µM.

What about the CC50 (DU-145) of the same compound?
Its CC50 is 15 µM.

What about the CC50 [8] of the same compound?
Its CC50 is 15 µM.

What about the CC50 [9] of the same compound?
The CC50 was ≤ 3 µM.

For `CC(C)(O)/C=C/[C@@]12[C@H]3[C@@H](O)[C@@H]4O[C@@H]4[C@]1(O)OC(C)(C)[C@@H]2C=C1C(=O)[C@H]2O[C@H]2[C@H](O)[C@H]13` [PANEPOPHENANTHRIN], which IC50 [10] is on record?
The IC50 was 17 µg/mL (≈ 40.4 µM).
